Assay results taken from patent US8716180B2 (priority 2005, dated 2014).

System: deoxynivalenol (DON)
Design: species or system winter wheat
Settings: in vivo

In the case of `N#Cc1c[nH]cc1-c1cccc2c1OC(F)(F)O2` [Lot B, fludioxonil], the “Amount of DON (deoxynivalenol) in the ear of wheat” value is reported as 0 ppb.
